# System: yeast genes (level of expressed mRNA)
# Test: DNA chip analysis of expressed mRNA of yeast genes after 2 h culture with a toxic chemical substance
# Format: cell-based, Saccharomyces cerevisiae S288C
# In short: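 Values are treated-to-control fluorescence ratios from a whole-yeast-genome DNA chip (65° C, over 12 h hybridization) using Cy3/Cy5-labelled cDNA from mRNA. Log-phase S288C cells in YPD at 25° C were exposed 2 h to a toxicant at sublethal, growth-inhibiting concentration.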
substance,measurement,setting,value
HgCl2 [(3)],The level of expressed mRNA in the presence of chemical substance/,"yeast gene YFL010C, ratio to control without chemical substance, 2 h culture",1.3
same,The level of expressed mRNA in the presence of chemical substance/,"yeast gene YFL024C, ratio to control without chemical substance, 2 h culture",1.1
same,The level of expressed mRNA in the presence of chemical substance/The level of expressed mRNA in the absence of chemical substance,yeast gene YFL028C,0.7
same,The level of expressed mRNA in the presence of chemical substance/,"yeast gene YFL032W, ratio to control without chemical substance, 2 h culture",1.6
same,The level of expressed mRNA in the presence of chemical substance/The level of expressed mRNA in the absence of chemical substance,yeast gene YFL043C,0.6
same,The level of expressed mRNA in the presence of chemical substance/in the absence of chemical substance,yeast gene YGL035C,4.3
same,The level of expressed mRNA in the presence of chemical substance/,"yeast gene YGL037C, ratio to control without chemical substance, 2 h culture",6.5
same,The level of expressed mRNA in the presence of chemical substance/,"yeast gene YGL047W, ratio to control without chemical substance, 2 h culture",1.6
same,The level of expressed mRNA in the presence of chemical substance/,"yeast gene YGL053W, ratio to control without chemical substance, 2 h culture",1.2
same,The level of expressed mRNA in the presence of chemical substance/,"yeast gene YGL121C, ratio to control without chemical substance, 2 h culture",1.4
same,The level of expressed mRNA in the presence of chemical substance/The level of expressed mRNA in the absence of chemical substance,yeast gene YGL158W,1.9
same,The level of expressed mRNA in the presence of chemical substance/,"yeast gene YGL199C, ratio to control without chemical substance, 2 h culture",1.7
same,The level of expressed mRNA in the presence of chemical substance/The level of expressed mRNA in the absence of chemical substance,yeast gene YGL229C,0.9
same,The level of expressed mRNA in the presence of chemical substance/,"yeast gene YGR101W, ratio to control without chemical substance, 2 h culture",1.2
same,The level of expressed mRNA in the presence of chemical substance/,"yeast gene YGR110W, ratio to control without chemical substance, 2 h culture",2.2
same,The level of expressed mRNA in the presence of chemical substance/,"yeast gene YGR130C, ratio to control without chemical substance, 2 h culture",0.6
same,The level of expressed mRNA in the presence of chemical substance/The level of expressed mRNA in the absence of chemical substance,yeast gene YGR136W,1.3
same,The level of expressed mRNA in the presence of chemical substance/,"yeast gene YGR154C, ratio to control without chemical substance, 2 h culture",2.2
same,The level of expressed mRNA in the presence of chemical substance/The level of expressed mRNA in the absence of chemical substance,yeast gene YGR189C,1.5
same,The level of expressed mRNA in the presence of chemical substance/The level of expressed mRNA in the absence of chemical substance,yeast gene YGR213C,1.0
same,The level of expressed mRNA in the presence of chemical substance/,"yeast gene YGR221C, ratio to control without chemical substance, 2 h culture",0.9
same,The level of expressed mRNA in the presence of chemical substance/The level of expressed mRNA in the absence of chemical substance,yeast gene YGR257C,0.9
same,The level of expressed mRNA in the presence of chemical substance/in the absence of chemical substance,yeast gene YGR287C,1.3
same,The level of expressed mRNA in the presence of chemical substance/The level of expressed mRNA in the absence of chemical substance,yeast gene YHR004C,0.8
same,The level of expressed mRNA in the presence of chemical substance/The level of expressed mRNA in the absence of chemical substance,yeast gene YHR071W,0.6
same,The level of expressed mRNA in the presence of chemical substance/,"yeast gene YHR138C, ratio to control without chemical substance, 2 h culture",2.2
same,The level of expressed mRNA in the presence of chemical substance/The level of expressed mRNA in the absence of chemical substance,yeast gene YHR139C,6.8
same,The level of expressed mRNA in the presence of chemical substance/The level of expressed mRNA in the absence of chemical substance,yeast gene YHR142W,2.1
same,The level of expressed mRNA in the presence of chemical substance/,"yeast gene YHR199C, ratio to control without chemical substance, 2 h culture",3.2
same,The level of expressed mRNA in the presence of chemical substance/,"yeast gene YIL023C, ratio to control without chemical",2.1
same,The level of expressed mRNA in the presence of chemical substance/,"yeast gene YIL041W, ratio to control without chemical substance, 2 h culture",2.1
same,The level of expressed mRNA in the presence of chemical substance/,"yeast gene YIL087C, ratio to control without chemical substance, 2 h culture",3.4
same,The level of expressed mRNA in the presence of chemical substance/The level of expressed mRNA in the absence of chemical substance,yeast gene YIL123W,1.2
same,The level of expressed mRNA in the presence of chemical substance/The level of expressed mRNA in the absence of chemical substance,yeast gene YIL140W,1.5
same,The level of expressed mRNA in the presence of chemical substance/,"yeast gene YJL057C, ratio to control without chemical substance, 2 h culture",1.6
same,The level of expressed mRNA in the presence of chemical substance/,"yeast gene YJL066C, ratio to control without chemical substance, 2 h culture",1.2
same,The level of expressed mRNA in the presence of chemical substance/in the absence of chemical substance,yeast gene YJL070C,1.1
same,The level of expressed mRNA in the presence of chemical substance/The level of expressed mRNA in the absence of chemical substance,yeast gene YJL073W,2.5
same,The level of expressed mRNA in the presence of chemical substance/,"yeast gene YJL082W, ratio to control without chemical substance, 2 h culture",2.4
same,The level of expressed mRNA in the presence of chemical substance/The level of expressed mRNA in the absence of chemical substance,yeast gene YJL089W,1.0
same,The level of expressed mRNA in the presence of chemical substance/The level of expressed mRNA in the absence of chemical substance,yeast gene YJL116C,1.3
same,The level of expressed mRNA in the presence of chemical substance/,"yeast gene YJL151C, ratio to control without chemical substance, 2 h culture",3.2
same,The level of expressed mRNA in the presence of chemical substance/,"yeast gene YJL152W, ratio to control without chemical substance, 2 h culture",1.8
same,The level of expressed mRNA in the presence of chemical substance/,"yeast gene YJL161W, ratio to control without chemical substance, 2 h culture",1.5
same,The level of expressed mRNA in the presence of chemical substance/in the absence of chemical substance,yeast gene YJL167W,1.4
same,The level of expressed mRNA in the presence of chemical substance/,"yeast gene YJL171C, ratio to control without chemical substance, 2 h culture",2.8
same,The level of expressed mRNA in the presence of chemical substance/in the absence of chemical substance,yeast gene YJL216C,2.2
same,The level of expressed mRNA in the presence of chemical substance/The level of expressed mRNA in the absence of chemical substance,yeast gene YJR004C,3.4
same,The level of expressed mRNA in the presence of chemical substance/,"yeast gene YJR008W, ratio to control without chemical substance, 2 h culture",1.2
same,The level of expressed mRNA in the presence of chemical substance/,"yeast gene YJR054W, ratio to control without chemical",0.3
same,The level of expressed mRNA in the presence of chemical substance/The level of expressed mRNA in the absence of chemical substance,yeast gene YJR086W,0.8
same,The level of expressed mRNA in the presence of chemical substance/The level of expressed mRNA in the absence of chemical substance,yeast gene YKL008C,2.0
same,The level of expressed mRNA in the presence of chemical substance/The level of expressed mRNA in the absence of chemical substance,yeast gene YKL013C,1.4
same,The level of expressed mRNA in the presence of chemical substance/The level of expressed mRNA in the absence of chemical substance,yeast gene YKL039W,2.4
same,The level of expressed mRNA in the presence of chemical substance/The level of expressed mRNA in the absence of chemical substance,yeast gene YKL041W,1.1
same,The level of expressed mRNA in the presence of chemical substance/,"yeast gene YKL071W, ratio to control without chemical substance, 2 h culture",5.4

# From patent publication US20050112573A1, “Method of detecting toxic substance” (priority 2001, published 2005)
